Test results from US20140378531A1, “INHIBITION OF PATTERN RECOGNITION RECEPTORS IN PANCREATIC CANCER TREATMENT USING TLR INHIBITORS” (NEW YORK UNIVERSITY, priority 2012, published 2014).

Experiments:
Type in all cases: in vivo
[1] = L-arginine induced pancreatic injury; settings: WT mice, L-arginine for one week
MAP Kinase = MAP Kinase or NF-κB blockade in caerulein + ssRNA40 pancreatitis; settings: mice, caerulein for 3 weeks + ssRNA40 + pathway blockade
Procedure: FIG. 15. TLR7 agonists exacerbate pancreatic inflammation via NF-κB and MAP Kinase dependent mechanisms. Mice were treated for 3 weeks with caerulein to induce pancreatitis.
In vivo TLR7 ligation was accomplished by thrice weekly i.p administration of selective TLR7 agonists (ssRNA40, E. coli RNA, or Adenine analogue, all 100 μg/kg; Invivogen, San Diego, Calif.). TLR7 blockade was accomplished using an oligonucleotide inhibitor of TLR7 (Guiducci et al., 2010) (IRS661, 100 μg, 3× per week; Dynavax, Berkeley, Calif.). Bone marrow chimeric animals were created by irradiating mice ([…]) followed by i.v. bone marrow transfer (1×10^7 cells) from non-irradiated donors as described (Bedrosian et al., 2011) Chimeric mice were employed in experiments 7 weeks later. In selected experiments, to accelerate carcinogenesis in p48Cre;Kras^G12D mice, two doses of caerulein (50 μg/kg) were administered over 48 hours as described (Carriere et al., 2009). MAP Kinase signaling blockade was accomplished using the MKK inhibitor PD98059 (2.5 mg/kg/day), the p38 inhibitor SB203580 (30 mg/kg/day), or the JNK inhibitor SP600125 (50 mg/kg/day; all Invivogen). Selective NF-κB signaling blockade was accomplished using either the NEMO binding domain inhibitor (1 mg/kg/day, EMD4Biosciences, Gibbstown, N.J.) or the IkB inhibitor Bay11-7082 (1.25 mg/kg/day; Invivogen). […]

TLR7 = molecular target: T1, TLR7 (Mus musculus, UniProt P58681); experiment: TLR7 blockade in caerulein-accelerated pancreatic carcinogenesis in p48Cre;Kras^G12D mice; settings: caerulein 50 μg/kg, two doses over 48 hours
T1 construct: from tissue; host or cells: whole animal: p48Cre;Kras^G12D mice and WT C57BL/6 mice; TLR7 on pancreatic leukocytes and epithelial cells
T1 sequence (P58681 27-1050): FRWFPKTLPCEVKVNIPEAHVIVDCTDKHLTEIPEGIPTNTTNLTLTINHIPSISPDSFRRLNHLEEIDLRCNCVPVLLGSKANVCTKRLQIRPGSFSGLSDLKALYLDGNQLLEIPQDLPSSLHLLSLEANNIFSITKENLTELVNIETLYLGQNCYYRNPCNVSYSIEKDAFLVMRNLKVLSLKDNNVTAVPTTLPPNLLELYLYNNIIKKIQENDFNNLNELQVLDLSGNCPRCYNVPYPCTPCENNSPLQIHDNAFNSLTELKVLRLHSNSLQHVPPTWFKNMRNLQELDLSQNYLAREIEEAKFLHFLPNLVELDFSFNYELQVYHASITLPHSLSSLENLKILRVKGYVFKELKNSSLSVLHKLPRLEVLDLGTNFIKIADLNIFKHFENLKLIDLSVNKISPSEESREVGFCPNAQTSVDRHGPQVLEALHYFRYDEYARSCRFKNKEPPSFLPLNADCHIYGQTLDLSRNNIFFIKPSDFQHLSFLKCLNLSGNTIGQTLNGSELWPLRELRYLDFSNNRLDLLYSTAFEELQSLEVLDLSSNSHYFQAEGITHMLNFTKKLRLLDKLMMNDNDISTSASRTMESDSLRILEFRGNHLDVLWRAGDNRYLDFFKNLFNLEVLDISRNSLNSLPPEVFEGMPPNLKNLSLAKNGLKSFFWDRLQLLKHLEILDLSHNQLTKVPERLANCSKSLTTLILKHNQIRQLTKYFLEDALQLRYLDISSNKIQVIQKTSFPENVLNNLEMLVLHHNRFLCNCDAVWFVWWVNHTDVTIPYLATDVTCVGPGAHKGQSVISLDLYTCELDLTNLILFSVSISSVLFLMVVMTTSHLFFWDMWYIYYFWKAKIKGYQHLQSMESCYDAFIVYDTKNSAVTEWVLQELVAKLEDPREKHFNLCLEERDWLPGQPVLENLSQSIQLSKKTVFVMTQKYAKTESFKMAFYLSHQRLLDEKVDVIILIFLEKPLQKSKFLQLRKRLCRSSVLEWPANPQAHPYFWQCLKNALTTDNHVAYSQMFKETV

Compound: N=C(N)NCCC[C@H](N)C(=O)O [L-arginine]
- pancreatic injury [1]: induced mild pancreatic edema and inflammation

Compound: COc1cccc(-c2cc(=O)c3ccccc3o2)c1N [PD98059]
- effects of TLR7 ligation on fibro-inflammatory pancreatic disease (MAP Kinase): protected from effects of TLR7 ligation

Compound: caerulein
- pancreatic histology after caerulein alone (TLR7): developed invasive pancreatic adenocarcinoma within an extensive bed of fibro-inflammatory stroma
